We go through four compounds from patent US20240115488A1, “COMPOSITION FOR ORAL CAVITY CARE” (ICHIMARU PHARCOS CO., LTD., priority 2021, published 2024).

Like-named read-outs stand apart in the source and are kept apart here.

The assay deals with Streptococcus mutans (NBRC13955). It counts as cell-based. The settings on record: Cont. group = 100.

Description: The Streptococcus mutans was cultured in Todd-Hewitt Broth at 37° C. overnight (approximately 16 hours), and proliferated until the absorbance OD660 measured at 660 nm reached to a value in the range from 0.8 to 1.4. The Streptococcus mutans proliferated was used. Based on the absorbance measured, the Streptococcus mutans was diluted with PBS such that OD660 was 0.125, to prepare a bacterial culture to be used in the following test.
The Codium fragile extract liquid was diluted with PBS to have a concentration of 1%, and then used in the following test.
Each antibacterial agent used in the test was prepared to have a concentration that was two times a test concentration for mixing of the antibacterial agent with the Codium fragile extract liquid, a fraction having a predetermined molecular weight, or PBS at 1:1.
As a CPC solution, a stock solution (2% CPC) was obtained by dissolving 0.2 g of CPC in 10 mL of ethanol solution. This solution was diluted 20-fold with purified water to prepare a 0.1% CPC (5% ethanol) solution. This solution was further diluted with a 5% ethanol solution to prepare 0.05% CPC (5% ethanol) and 0.02% CPC (5% ethanol).
As a benzalkonium chloride solution, a stock solution (2% benzalkonium chloride) was obtained by dissolving 0.2 g of benzalkonium chloride in 10 mL of ethanol solution. This solution was diluted 5-fold with ethanol to prepare an ethanol solution of 0.4% benzalkonium chloride solution. This solution was diluted 20-fold with purified water to prepare 0.02% benzalkonium chloride (5% ethanol). This was further diluted 2-fold with a 5% ethanol solution to prepare a 0.01% benzalkonium chloride (5% ethanol) solution. This solution was diluted 2 times with a 5% ethanol solution to prepare a 0.005% benzalkonium chloride (5% ethanol) solution.
A 20% aqueous chlorhexidine solution was used as an undiluted solution of chlorhexidine solution. The chlorhexidine solution was diluted 20-fold with ethanol and purified water to prepare a 0.1% chlorhexidine (5% ethanol) solution. This solution was further diluted 5-fold with a 5% ethanol solution to prepare a 0.02% chlorhexidine (5% ethanol) solution. This solution was further diluted 10-fold with 5% ethanol to prepare a 0.002% chlorhexidine (5% ethanol) solution.
As an IPMP solution, a stock solution (4% IPMP) was obtained by dissolving 0.4 g of IPMP in 10 mL of ethanol solution. This solution was diluted 20-fold with ethanol and purified water to prepare a 0.2% IPMP (20% ethanol) solution. This solution was further diluted 2-fold with 20% ethanol to prepare a 0.1% IPMP (20% ethanol) solution. This solution was further diluted with 20% ethanol to prepare a 0.04% IPMP (20% ethanol) solution.
Two or more hours after toothbrushing, saliva was collected. Stimulated saliva secreted by mastication of Parafilm was collected, and then centrifuged at 4° C. and 2,000×g for 30 minutes. A supernatant was filtered with suction through a cellulose mixed ester membrane filter (0.1 μm, 90 mm), and the saliva was diluted with PBS to have an appropriate concentration.
100 μL of the human saliva prepared as describe above was added to a 96-well multiplate (made from polystyrene, MultiSorp, manufactured by Thermo Fisher Scientific Inc.), the multiplate was sealed, and incubation was carried out at 37° C. for 1 hour. Each well was then cleaned twice with 300 μL of PBS, 100 μL of each of the samples described above was added, the multiplate was sealed, and incubation was carried out at 37° C. for 1 hour. Subsequently, the liquid was discarded from each of the wells, the wells were cleaned twice with 300 μL of PBS, and 100 μL of the bacterial culture prepared such that OD660 was 0.125 was added to each well.

Turning to `CCCCCCCCCCCCCCCC[n+]1ccccc1` [CPC, cetylpyridinium chloride], the Adhesion rate (0.010 (w/v %) CPC, relative value, FIG. 1) came out at 92.6; the Adhesion rate (0.025 (w/v %) CPC, relative value, FIG. 1) amounted to 93.4; the Adhesion rate (0.050 (w/v %) CPC, relative value, FIG. 1) was found to be 98.9.

`Cc1cc(O)ccc1C(C)C` [IPMP, 3-methyl-4-isopropyl methylphenol]: the Adhesion rate was 91.5 (0.020 (w/v %) IPMP, FIG. 4); 84.3 (0.050 (w/v %) IPMP, FIG. 4); 70.7 (0.100 (w/v %) IPMP, FIG. 4).

The compound benzalkonium chloride registered an Adhesion rate (0.010 (w/v %) benzalkonium chloride, FIG. 2) of 103; an Adhesion rate (0.025 (w/v %) benzalkonium chloride, FIG. 2) of 98.4; an Adhesion rate (0.050 (w/v %) benzalkonium chloride, FIG. 2) of 93.8.

`[H]/N=C(\N/C(=N/[H])NCCCCCCNC(=N)NC(=N)Nc1ccc(Cl)cc1)Nc1ccc(Cl)cc1` [chlorhexidine]: the Adhesion rate stood at 85.9 (0.010 (w/v %) chlorhexidine, FIG. 3); 63.3 (0.025 (w/v %) chlorhexidine, FIG. 3); 62.4 (0.050 (w/v %) chlorhexidine, FIG. 3).
